This passage reports relative viability results from the supplement of paper PMC10307832.

Holding throughout (test): relative viability (nuclei count vs DMSO), 5 days (fraction); higher = more cells survive
Compound in the test “JZL-184 + Palbociclib”: C1CN(CCC1C(C2=CC3=C(C=C2)OCO3)(C4=CC5=C(C=C4)OCO5)O)C(=O)OC6=CC=C(C=C6)[N+](=O)[O-] [JZL-184] + CC(=O)c1c(C)c2cnc(Nc3ccc(N4CCNCC4)cn3)nc2n(C2CCCC2)c1=O [Palbociclib] (partner 0.5 µM)
Summed up: (§1)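 Values are medians from duplicate plates. Each reflects relative viability, defined as the nuclei count of treated wells over that of vehicle wells. Lung cancer cell lines in 1536-well plates were pin-tool dosed one day after seeding with one drug alone or with a fixed anchor-drug dose plus five library-drug doses (not always all listed) in √10 steps, then fixed, stained and imaged at 4× after 5 days.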

Compound in the test “JZL-184 + Lapatinib”: C1CN(CCC1C(C2=CC3=C(C=C2)OCO3)(C4=CC5=C(C=C4)OCO5)O)C(=O)OC6=CC=C(C=C6)[N+](=O)[O-] [JZL-184] + CS(=O)(=O)CCNCc1ccc(-c2ccc3ncnc(Nc4ccc(OCc5cccc(F)c5)c(Cl)c4)c3c2)o1 [Lapatinib] (partner 2 µM)
An outline of the steps:
as §1

Compound in the test “JZL-184 + Pictilisib”: C1CN(CCC1C(C2=CC3=C(C=C2)OCO3)(C4=CC5=C(C=C4)OCO5)O)C(=O)OC6=CC=C(C=C6)[N+](=O)[O-] [JZL-184] + CS(=O)(=O)N1CCN(Cc2cc3nc(-c4cccc5[nH]ncc45)nc(N4CCOCC4)c3s2)CC1 [Pictilisib] (partner 1 µM)
Summed up:
as §1

Compound in the test “JZL-184 + Trametinib”: C1CN(CCC1C(C2=CC3=C(C=C2)OCO3)(C4=CC5=C(C=C4)OCO5)O)C(=O)OC6=CC=C(C=C6)[N+](=O)[O-] [JZL-184] + CC(=O)Nc1cccc(-n2c(=O)n(C3CC3)c(=O)c3c(Nc4ccc(I)cc4F)n(C)c(=O)c(C)c32)c1 [Trametinib] (partner 0.02 µM)
Summed up:
as §1

Compound in the test “JZL-184 + Luminespib”: C1CN(CCC1C(C2=CC3=C(C=C2)OCO3)(C4=CC5=C(C=C4)OCO5)O)C(=O)OC6=CC=C(C=C6)[N+](=O)[O-] [JZL-184] + CCNC(=O)c1noc(-c2cc(C(C)C)c(O)cc2O)c1-c1ccc(CN2CCOCC2)cc1 [Luminespib] (partner 0.01 µM)
An outline of the steps:
as §1

Consider LC-2-ad, for which the relative viability was 0.579 with JZL-184 + Palbociclib (first compound 0.04 µM); 0.504 with JZL-184 + Palbociclib (first compound 0.4 µM); 0.488 with JZL-184 + Palbociclib (first compound 1.265 µM); 0.484 in the test with JZL-184 + Palbociclib (first compound 4 µM); 1.19 in the test with JZL-184 + Lapatinib (first compound 0.04 µM); 0.889 with JZL-184 + Lapatinib (first compound 0.4 µM). Besides, the relative viability with JZL-184 + Lapatinib (first compound 1.265 µM) came out at 1.05; with JZL-184 + Lapatinib (first compound 4 µM) it was 0.952; in the test with JZL-184 + Pictilisib (first compound 0.04 µM) it was 0.546; with JZL-184 + Pictilisib (first compound 0.4 µM) it was 0.388; with JZL-184 + Pictilisib (first compound 1.265 µM), 0.658; with JZL-184 + Pictilisib (first compound 4 µM), 0.461. For the same cell line, the relative viability in the test with JZL-184 + Trametinib (first compound 0.04 µM) stood at 0.94; in the test with JZL-184 + Trametinib (first compound 0.4 µM), 0.896; in the test with JZL-184 + Trametinib (first compound 1.265 µM), 0.93; with JZL-184 + Trametinib (first compound 4 µM), 0.881; with JZL-184 + Luminespib (first compound 0.04 µM), 1.27; with JZL-184 + Luminespib (first compound 0.4 µM), 0.891. In addition, the relative viability with JZL-184 + Luminespib (first compound 1.265 µM) is 1.11; with JZL-184 + Luminespib (first compound 4 µM) it was 1.03.

For the cell line LCLC-97TM1, the relative viability with JZL-184 + Palbociclib (first compound 0.04 µM) is 0.283; with JZL-184 + Palbociclib (first compound 0.4 µM), 0.195; in the test with JZL-184 + Palbociclib (first compound 1.265 µM), 0.255; with JZL-184 + Palbociclib (first compound 4 µM), 0.274; in the test with JZL-184 + Lapatinib (first compound 0.04 µM) it was 1.08; with JZL-184 + Lapatinib (first compound 1.265 µM), 1.01. The relative viability with JZL-184 + Lapatinib (first compound 4 µM) came out at 0.858; in the test with JZL-184 + Pictilisib (first compound 0.04 µM), 0.259; with JZL-184 + Pictilisib (first compound 1.265 µM), 0.237; with JZL-184 + Pictilisib (first compound 4 µM), 0.201; with JZL-184 + Trametinib (first compound 0.04 µM), 0.215; in the test with JZL-184 + Trametinib (first compound 0.4 µM), 0.182. Besides, the relative viability with JZL-184 + Trametinib (first compound 1.265 µM) stood at 0.222; in the test with JZL-184 + Trametinib (first compound 4 µM), 0.206; in the test with JZL-184 + Luminespib (first compound 0.04 µM), 0.812; with JZL-184 + Luminespib (first compound 0.4 µM), 0.66; with JZL-184 + Luminespib (first compound 1.265 µM) it was 0.828; in the test with JZL-184 + Luminespib (first compound 4 µM), 0.653.

With LCLC-103H, the relative viability with JZL-184 + Palbociclib (first compound 0.04 µM) worked out at 0.438; with JZL-184 + Palbociclib (first compound 0.4 µM) it was 0.213; with JZL-184 + Palbociclib (first compound 1.265 µM), 0.502; with JZL-184 + Palbociclib (first compound 4 µM), 0.511; with JZL-184 + Pictilisib (first compound 0.04 µM) it was 0.574; with JZL-184 + Pictilisib (first compound 0.4 µM), 0.49. The relative viability with JZL-184 + Pictilisib (first compound 1.265 µM) came to 0.654; with JZL-184 + Pictilisib (first compound 4 µM), 0.615; with JZL-184 + Trametinib (first compound 0.04 µM), 0.644; in the test with JZL-184 + Trametinib (first compound 0.4 µM), 0.664; with JZL-184 + Trametinib (first compound 1.265 µM) it was 0.691; with JZL-184 + Trametinib (first compound 4 µM), 0.674. For the same cell line, the relative viability with JZL-184 + Luminespib (first compound 0.04 µM) is 1.04; in the test with JZL-184 + Luminespib (first compound 0.4 µM) it was 0.829; in the test with JZL-184 + Luminespib (first compound 1.265 µM) it was 0.835; with JZL-184 + Luminespib (first compound 4 µM) it was 0.866.

LK-2: the relative viability with JZL-184 + Palbociclib (first compound 0.04 µM) was found to be 0.817; in the test with JZL-184 + Palbociclib (first compound 0.4 µM) it was 0.514; in the test with JZL-184 + Palbociclib (first compound 1.265 µM), 0.795; with JZL-184 + Palbociclib (first compound 4 µM), 0.887; with JZL-184 + Lapatinib (first compound 0.04 µM) it was 1.24; with JZL-184 + Lapatinib (first compound 0.4 µM), 0.878. Besides, the relative viability in the test with JZL-184 + Lapatinib (first compound 1.265 µM) worked out at 1.04; with JZL-184 + Lapatinib (first compound 4 µM), 0.972; with JZL-184 + Pictilisib (first compound 0.04 µM), 0.511; with JZL-184 + Pictilisib (first compound 0.4 µM), 0.6; in the test with JZL-184 + Pictilisib (first compound 1.265 µM) it was 0.632; in the test with JZL-184 + Pictilisib (first compound 4 µM) it was 0.645. For the same cell line, the relative viability turned out to be 0.903 with JZL-184 + Trametinib (first compound 0.04 µM); 0.736 with JZL-184 + Trametinib (first compound 0.4 µM); 0.856 with JZL-184 + Trametinib (first compound 1.265 µM); 0.721 with JZL-184 + Trametinib (first compound 4 µM); 0.217 with JZL-184 + Luminespib (first compound 0.04 µM); 0.194 in the test with JZL-184 + Luminespib (first compound 0.4 µM). Further, the relative viability with JZL-184 + Luminespib (first compound 1.265 µM) worked out at 0.203; with JZL-184 + Luminespib (first compound 4 µM), 0.17.
